Assay results: patent publication US20220127570A1, “IMMUNE EFFECTOR CELL AND USE THEREOF” (CAFA THERAPEUTICS LIMITED, priority 2018, published 2022)

Tests used:
[1] = cited from earlier work
[2] = system: PLC/PRF/5 subcutaneous xenograft; test: PLC/PRF/5 subcutaneous xenograft model, CAR T in combination with sorafenib; type: in vivo, NPG mice
Description: 2) Inoculation of subcutaneous xenograft: PLC/PRF/5 cells in the logarithmic growth phase and in good growth condition were collected by Trypsin digestion and washed once with normal saline. The cell density was adjusted to 1.5×10^7/mL and 200 μL of cell suspension was injected into the subcutaneous part of the right abdomen of NPG mice using a syringe, that is, each mouse was inoculated with 3×10^6 tumor cells, and the inoculation day was the 0th day.
3) Injection of CAR T: On D14 days after subcutaneous inoculation of tumor cells, the average tumor volume was about 260 mm^3. CAR T cells were injected, and the injection dose: 2.0×10^6/animal. On D1-D14 days after subcutaneous inoculation of tumor cells, sorafenib was administered by gavage at a dose of 75 mg/kg, and the gavage volume was 200 ul, once a day, for 14 consecutive days, and the solvent was used as a negative control.

SMILES: CNC(=O)c1cc(Oc2ccc(NC(=O)Nc3ccc(Cl)c(C(F)(F)F)c3)cc2)ccn1 [Sorafenib]
- solubility in polyvinylglycerol 400 (PEG400) ([1]; PEG400): soluble
- solubility in ethanol ([1]; ethanol): slightly soluble
- solubility in water ([1]; water): poorly soluble
- tumor inhibiting rate ([2]; D18 after injection of CAR T, compared with UTD control group, CAR T 2.0×10^6/animal, sorafenib 75 mg/kg gavage once a day for 14 days): 27.38%
- body weight of mice compared with UTD ([2]; at the beginning of the treatment): decreased
- body weight of mice ([2]; at the end of the treatment): restored
